From article PMC9181698 (International Journal of Molecular Sciences, 2022) come the findings set out here.

Experiment [1] relates to SIV pseudotyped with the SARS-CoV-2 spike protein (wt). The following applies: SIV pseudotyped with the spike protein (wt, 48 h).
Experiment [2] concerns ACE2–RBD interaction (Omicron variant RBD-Fc / His-tagged hACE2). Format: biochemical, SARS-CoV-2. As to conditions: read-out: Inhibition of ACE2–RBD Interaction.
Experiment [3] relates to SIV pseudotyped with the SARS-CoV-2 spike protein (Alpha). As to conditions: SIV pseudotyped with the spike protein (Alpha, 48 h).
The subject of experiment [4] is SIV pseudotyped with the SARS-CoV-2 spike protein (Delta). The following applies: SIV pseudotyped with the spike protein (Delta, 48 h).
In experiment [5] the test system is SIV pseudotyped with the SARS-CoV-2 spike protein (Omicron). As to conditions: SIV pseudotyped with the spike protein (Omicron, 48 h).
For experiment [6], the system named is SIV pseudotyped with the SARS-CoV-2 spike protein (Beta). As to conditions: SIV pseudotyped with the spike protein (Beta, 48 h).
Experiment [7] relates to pseudovirus with wt SARS-CoV-2 spike carrying E484K + N501Y.
For experiment [8], the system named is pseudovirus with wt SARS-CoV-2 spike carrying K417N.

Consider `CC[C@H](C)[C@H](NC(=O)[C@H](CC(C)C)NC(=O)[C@H](CC(=O)O)NC(=O)[C@H](CO)NC(=O)[C@@H](NC(=O)[C@H](CCCNC(=N)N)NC(=O)[C@H](CCSC)NC(=O)[C@H](CO)NC(=O)[C@H](C)NC(=O)[C@H](CCC(=O)O)NC(=O)[C@H](C)NC(=O)[C@H](Cc1c[nH]cn1)NC(=O)CNC(=O)[C@H](CC(C)C)NC(=O)[C@H](CCC(=O)O)NC(=O)[C@H](CC(=O)O)NC(=O)[C@H](CC(C)C)NC(=O)[C@H](CC(C)C)NC(=O)[C@H](CCCNC(=N)N)NC(=O)[C@H](CCSC)NC(=O)[C@@H](NC(=O)[C@H](CCC(=O)O)NC(=O)[C@H](Cc1ccc(O)cc1)NC(=O)[C@@H](NC(=O)[C@H](CCCCN)NC(=O)[C@H](CCC(N)=O)NC(=O)[C@H](CC(C)C)NC(=O)[C@@H](NC(=O)[C@H](Cc1c[nH]c2ccccc12)NC(=O)[C@H](CCC(=O)O)NC(=O)[C@H](CCCCN)NC(=O)[C@H](CC(=O)O)NC(=O)COCCOCCNC(=O)CCCC[C@@H]1SC[C@@H]2NC(=O)N[C@@H]21)[C@@H](C)CC)[C@@H](C)CC)[C@@H](C)CC)C(C)C)C(=O)N[C@@H](Cc1ccc(O)cc1)C(=O)N[C@@H](CCC(=O)O)C(=O)N[C@@H](Cc1ccccc1)C(=O)N[C@@H](CCSC)C(=O)N[C@@H](CCCCN)C(=O)N[C@@H](CCCCN)C(=O)NCC(N)=O` [LW25.1], for which the IC50 is 1.7 ± 0.11 nM in experiment [1]; […] in experiment [2]; 8.38 ± 3.31 nM in experiment [3]; 0.71 ± 0.23 nM in experiment [4]; over 500 nM in experiment [5]; over 500 nM in experiment [6].
For the molecule `CC[C@H](C)[C@H](NC(=O)[C@H](CC(C)C)NC(=O)[C@H](CC(=O)O)NC(=O)[C@H](CO)NC(=O)[C@@H](NC(=O)[C@H](CCCNC(=N)N)NC(=O)[C@H](CCSC)NC(=O)[C@H](CO)NC(=O)[C@H](C)NC(=O)[C@H](CCC(=O)O)NC(=O)[C@H](C)NC(=O)[C@H](Cc1c[nH]cn1)NC(=O)CNC(=O)[C@H](CC(C)C)NC(=O)[C@H](CCC(=O)O)NC(=O)[C@H](CC(=O)O)NC(=O)[C@H](CC(C)C)NC(=O)[C@H](CC(C)C)NC(=O)[C@H](CCCNC(=N)N)NC(=O)[C@H](CCSC)NC(=O)[C@@H](NC(=O)[C@H](CCC(=O)O)NC(=O)[C@H](Cc1ccc(O)cc1)NC(=O)[C@@H](NC(=O)[C@H](CCCCN)NC(=O)[C@H](CCC(N)=O)NC(=O)[C@H](CC(C)C)NC(=O)[C@@H](NC(=O)[C@H](Cc1c[nH]c2ccccc12)NC(=O)[C@H](CCC(=O)O)NC(=O)[C@H](CCCCN)NC(=O)[C@H](CC(=O)O)NC(=O)COCCOCCNC(=O)COCCOCCNC(=O)CCCC[C@@H]1SC[C@@H]2NC(=O)N[C@@H]21)[C@@H](C)CC)[C@@H](C)CC)[C@@H](C)CC)C(C)C)C(=O)N[C@@H](Cc1ccc(O)cc1)C(=O)N[C@@H](CCC(=O)O)C(=O)N[C@@H](Cc1ccccc1)C(=O)N[C@@H](CCSC)C(=O)N[C@@H](CCCCN)C(=O)N[C@@H](CCCCN)C(=O)NCC(=O)N[C@@H](CC(=O)O)C(=O)N[C@@H](CCC(=O)O)C(=O)N[C@@H](CCCNC(=N)N)C(=O)N[C@@H](CC(C)C)C(=O)N[C@@H](CC(C)C)C(=O)N[C@@H](CCC(=O)O)C(=O)N[C@@H](CCC(=O)O)C(=O)N[C@@H](C)C(=O)N[C@@H](CCC(=O)O)C(=O)N[C@@H](CCCNC(=N)N)C(=O)N[C@@H](CC(C)C)C(=O)N[C@@H](CC(C)C)C(=O)N[C@@H](CCC(=O)O)C(=O)N[C@@H](CCC(=O)O)C(=O)N[C@H](C(=O)N[C@@H](CCC(=O)O)C(N)=O)C(C)C` [LW25.3], the IC50 is 5.94 ± 4.17 nM in experiment [1]; 13.3 ± 4.55 nM in experiment [3]; 4.52 ± 0.43 nM in experiment [4]; over 500 nM in experiment [5]; over 500 nM in experiment [6].
As to `CC[C@H](C)[C@@H]1NC(=O)[C@H](CC(C)C)NC(=O)[C@H](CC(=O)O)NC(=O)[C@H](CO)NC(=O)[C@H](C(C)C)NC(=O)[C@H](CCCNC(=N)N)NC(=O)[C@H](CCSC)NC(=O)[C@H](CO)NC(=O)[C@H](C)NC(=O)[C@H](CCC(=O)O)NC(=O)[C@H](C)NC(=O)[C@H](Cc2c[nH]cn2)NC(=O)CNC(=O)[C@H](CC(C)C)NC(=O)[C@H](CCC(=O)O)NC(=O)[C@H](CC(=O)O)NC(=O)[C@H](CC(C)C)NC(=O)[C@H](CC(C)C)NC(=O)[C@H](CCCNC(=N)N)NC(=O)[C@H](CCSC)NC(=O)[C@H]([C@@H](C)CC)NC(=O)[C@H](CCC(=O)O)NC(=O)[C@H](Cc2ccc(O)cc2)NC(=O)[C@H]([C@@H](C)CC)NC(=O)[C@H](CCCCN)NC(=O)[C@H](CCC(N)=O)NC(=O)[C@H](CC(C)C)NC(=O)[C@H]([C@@H](C)CC)NC(=O)[C@H](Cc2c[nH]c3ccccc23)NC(=O)[C@H](CCC(=O)O)NC(=O)[C@@H](NC(=O)COCCOCCNC(=O)CCCC[C@@H]2SC[C@@H]3NC(=O)N[C@@H]32)CSSC[C@@H](C(N)=O)NC(=O)[C@H](CCCCN)NC(=O)[C@H](CCCCN)NC(=O)[C@H](CCSC)NC(=O)[C@H](Cc2ccccc2)NC(=O)[C@H](CCC(=O)O)NC(=O)[C@H](Cc2ccc(O)cc2)NC1=O` [LW25.13], the IC50 was 0.63 ± 0.24 nM in experiment [1]; […] in experiment [2]; 1.35 ± 0.08 nM in experiment [3]; 0.68 ± 0.12 nM in experiment [4]; over 500 nM in experiment [5]; over 500 nM in experiment [6]. For the same molecule, in experiment [7], the “Reduction in inhibitory activity (virus neutralization) by combination of E484K and N501N” value is “approximately three”.
Consider `CC[C@H](C)[C@H](NC(=O)[C@H](CC(C)C)NC(=O)[C@H](CC(=O)O)NC(=O)[C@H](CO)NC(=O)[C@@H](NC(=O)[C@H](CCCNC(=N)N)NC(=O)[C@H](CCSC)NC(=O)[C@H](CO)NC(=O)[C@H](C)NC(=O)[C@H](CCC(=O)O)NC(=O)[C@H](C)NC(=O)[C@H](Cc1c[nH]cn1)NC(=O)CNC(=O)[C@H](CC(C)C)NC(=O)[C@H](CCC(=O)O)NC(=O)[C@H](CC(=O)O)NC(=O)[C@H](CC(C)C)NC(=O)[C@H](CC(C)C)NC(=O)[C@H](CCCNC(=N)N)NC(=O)[C@H](CCSC)NC(=O)[C@@H](NC(=O)[C@H](CCC(=O)O)NC(=O)[C@H](Cc1ccc(O)cc1)NC(=O)[C@@H](NC(=O)[C@H](CCCCN)NC(=O)[C@H](CCC(N)=O)NC(=O)[C@H](CC(C)C)NC(=O)[C@@H](NC(=O)[C@H](Cc1c[nH]c2ccccc12)NC(=O)[C@H](CCC(=O)O)NC(=O)[C@H](CCCCN)NC(=O)[C@H](CC(=O)O)NC(=O)COCCOCCNC(=O)CCCC[C@@H]1SC[C@@H]2NC(=O)N[C@@H]21)[C@@H](C)CC)[C@@H](C)CC)[C@@H](C)CC)C(C)C)C(=O)N[C@@H](Cc1ccc(O)cc1)C(=O)N[C@@H](CCC(=O)O)C(=O)N[C@@H](Cc1ccccc1)C(=O)N[C@@H](CCSC)C(=O)N[C@@H](CCCCN)C(N)=O` [LW32.2], for which the “Decrease of susceptibility of the virus to inhibition by mutation K417N, factor” value in experiment [8] is reported as 25. The IC50 in experiment [1] was 0.93 ± 0.24 nM; in experiment [2] it was […]; in experiment [3] it was 6.15 ± 5.96 nM; in experiment [4], 1.54 ± 0.23 nM; in experiment [5] it was over 500 nM; in experiment [6], over 500 nM. The “Reduction in inhibitory activity (virus neutralization) by combination of E484K and N501N” value in experiment [7] is “nine”.
As to `CC[C@H](C)[C@H](NC(=O)[C@H](CC(C)C)NC(=O)[C@H](CC(=O)O)NC(=O)[C@H](CO)NC(=O)[C@@H](NC(=O)[C@H](CCCNC(=N)N)NC(=O)[C@H](CCSC)NC(=O)[C@H](CO)NC(=O)[C@H](C)NC(=O)[C@H](CCC(=O)O)NC(=O)[C@H](C)NC(=O)[C@H](Cc1c[nH]cn1)NC(=O)CNC(=O)[C@H](CC(C)C)NC(=O)[C@H](CCC(=O)O)NC(=O)[C@H](CC(=O)O)NC(=O)[C@H](CC(C)C)NC(=O)[C@H](CC(C)C)NC(=O)[C@H](CCCNC(=N)N)NC(=O)[C@H](CCSC)NC(=O)[C@@H](NC(=O)[C@H](CCC(=O)O)NC(=O)[C@H](Cc1ccc(O)cc1)NC(=O)[C@@H](NC(=O)[C@H](CCCCN)NC(=O)[C@H](CCC(N)=O)NC(=O)[C@H](CC(C)C)NC(=O)[C@@H](NC(=O)[C@H](Cc1c[nH]c2ccccc12)NC(=O)[C@H](CCC(=O)O)NC(=O)[C@H](CCCCN)NC(=O)[C@H](CC(=O)O)NC(=O)COCCOCCNC(=O)CCCC[C@@H]1SC[C@@H]2NC(=O)N[C@@H]21)[C@@H](C)CC)[C@@H](C)CC)[C@@H](C)CC)C(C)C)C(=O)N[C@@H](Cc1ccc(O)cc1)C(=O)N[C@@H](CCC(=O)O)C(=O)N[C@@H](Cc1ccccc1)C(N)=O` [LW32.4], the IC50 in experiment [1] is 11.8 ± 3.5 nM; in experiment [2] it was […]; in experiment [3], over 500 nM; in experiment [4] it was 10.2 ± 1.78 nM; in experiment [5], over 500 nM; in experiment [6], over 500 nM.
